Values joined by “and” are separate entries in the source; they are usually repeats but may differ in a detail not shown here. Equal values may be shown once.
How the values were obtained:
[1] = system: fibroblasts from patients with inherited defects of mitochondrial fat oxidation; assay: Propionylcarnitine production in all fat-oxidation-defective fibroblast cell lines (comparison in words); assay type: cell-based, human; conditions: all VLCAD, MTP, LCHAD, SCAD cell lines; C5 versus C7; C15 versus C5 or C7
Protocol: (§1) Fibroblasts obtained from patients with inherited defects of mitochondrial fat oxidation were cultured in the presence of omega deuterated odd-carbon numbered fatty acids, as described in Roe, C. R., Sweetman, L., Roe, D. S., David, F., Brunengraber, H., “Effective Dietary Treatment of Cardiomyopathy & Rhabdomyolysis in Long-Chain Fat Oxidation Disorders using an Anaplerotic Odd-Chain Triglyceride,” J. Clin. Invest. 110 (2): 259-269 (2002).
(§2) The data in Table 1 represents testing of cultured fibroblasts derived from ten patients afflicted with Very-long-chain acyl-CoA dehydrogenase (VLCAD) deficiency (six patients with the severe cardiac form and four with the non-cardiac milder phenotype), two patients with Mitochondrial Trifunctional Protein (MTP) deficiency, five patients having L-3-hydroxy-acyl-CoA dehydrogenase (LCHAD) deficiency and three patients with Short-chain acyl-CoA dehydrogenase (SCAD) deficiency.

[2] = system: fibroblasts from patients with Short-chain acyl-CoA dehydrogenase (SCAD) deficiency; assay: Propionylcarnitine from oxidation of odd-carbon fatty acids in SCAD fibroblasts; assay type: cell-based, human
Protocol: as §1, §2

[3] = system: fibroblasts from patients with Very-long-chain acyl-CoA dehydrogenase (VLCAD) deficiency, severe cardiac form; assay: Propionylcarnitine from oxidation of odd-carbon fatty acids in VLCAD (cardiac) fibroblasts; assay type: cell-based, human
Protocol: as §1, §2

[4] = system: MCAD-deficient fibroblasts; assay: Fate of odd-carbon fatty acids in MCAD-deficient fibroblasts; assay type: cell-based, human
Protocol: as §1
Fibroblasts from four patients with MCAD deficiency and one heterozygote (carrier) indicate that odd-carbon fatty acids containing more than seven carbons can not be effectively used in that disease. […]

[5] = system: fibroblasts from patients with L-3-hydroxy-acyl-CoA dehydrogenase (LCHAD) deficiency; assay: Propionylcarnitine from oxidation of odd-carbon fatty acids in LCHAD fibroblasts; assay type: cell-based, human
Protocol: as §1, §2

[6] = system: fibroblasts from patients with VLCAD deficiency, non-cardiac milder phenotype; assay: Propionylcarnitine from oxidation of odd-carbon fatty acids in VLCAD (non-cardiac) fibroblasts; assay type: cell-based, human
Protocol: as §1, §2

SCAD patient = assay: Meal test with triheptanoin or tripentanoin in a SCAD patient; assay type: in vivo, human
Description: (§3) A VLCAD patient and an SCAD patient, both of whom had gastrostomy sites for enteral administration, each were provided with separate meals containing equimolar amounts of triheptanoin (C7) and tripentanoin (C5) at different times on the same day. Each patient was given the amount in 1 of 4 daily meals equivalent to a diet of 3 gms/Kg/day or about 30% of total Kcal as the triglyceride. Serial blood samples were obtained hourly and individual urines were collected at baseline and during the meal.
(§4) The patient with VLCAD (FIG. 3) was monitored over a 3 hour interval and the SCAD patient was monitored for 4 hours after beginning the meal. […] One way the VLCAD patient was monitored was for myristenoylcamitine (cis-5-C14:1), which reflects oxidation of oleate and is therefore an indication of ongoing lipolysis during the meal tests (it is not derived from either C7 or C5). […] These changes are not observed with even-carbon triglycerides.
The second patient with SCAD deficiency (FIG. 4) had been receiving the triheptanoin diet for more than 2 years. This disorder is due to an inherited deficiency of butyryl-CoA dehydrogenase (SCAD) and is known to oxidize even carbon fatty acids of 4-6 carbon chain length.
In FIG. 4, C7-C3 represents the blood levels of C3 derived from C7; and C5-C3 represents the blood levels of C3 derived from C5, C7-C5 represents blood levels of pentanoylcarnitine (C5) derived from C7 meals and C5-C5 represents blood levels of pentanoylcarnitine (C5) derived from C5 meals. […] C7-C4 and C5-C4 represent the levels of the disease-specific acylcarnitine (butyrylcarnitine [C4]) observed in SCAD deficiency. […] This increased quantity of C3 corresponds to those observed for SCAD deficiency in the fibroblast studies above shown in Table 1.

[7] = system: control / normal fibroblasts; assay: Fate of odd-carbon fatty acids in control (normal) fibroblasts; assay type: cell-based, human; conditions: NORMAL fibroblasts
Protocol: Fibroblasts obtained from patients with inherited defects of mitochondrial fat oxidation were cultured in the presence of omega deuterated odd-carbon numbered fatty acids, as described in Roe, C. R., Sweetman, L., Roe, D. S., David, F., Brunengraber, H., “Effective Dietary Treatment of Cardiomyopathy & Rhabdomyolysis in Long-Chain Fat Oxidation Disorders using an Anaplerotic Odd-Chain Triglyceride,” J. Clin. Invest. 110 (2): 259-269 (2002). […]

[8] = system: fibroblasts from patients with Mitochondrial Trifunctional Protein (MTP) deficiency; assay: Propionylcarnitine from oxidation of odd-carbon fatty acids in MTP fibroblasts; assay type: cell-based, human
Protocol: as §1, §2

VLCAD patient = assay: Meal test with triheptanoin or tripentanoin in a VLCAD patient; assay type: in vivo, human; design: Myristenoylcarnitine Level: unit not given here; conditions: for Myristenoylcarnitine Level / Propionylcarnitine Level: blood
Description: as §3, §4

[9] = SCAD fibroblasts, one line per patient
[10] = VLCAD cardiac fibroblasts, one line per patient
[11] = average over VLCAD cardiac cell lines
[12] = LCHAD fibroblasts, one line per patient
[13] = VLCAD non-cardiac fibroblasts, one line per patient
[14] = average over VLCAD non-cardiac cell lines
[15] = MTP fibroblasts, one line per patient

CCCCC(=O)O [C5, n-pentanoic acid]
Quantity of propionylcarnitine produced, compared with the other odd-carbon fatty acids [1]: consistently greater quantities of propionylcarnitine
Ratio: C5/C7 (propionylcarnitine) [2, 9]: 1.4 (2×) and 1.2
Ratio: C5/C15 (propionylcarnitine) [2, 9]: 1.4 (2×) and 1.3
Propionylcarnitine from oxidation of fatty acid ([2]; SCAD fibroblasts, one line per patient, 72 hours incubation): 80.2 nmol/mg Protein/72 hours and 43.6 nmol/mg Protein/72 hours and 48.2 nmol/mg Protein/72 hours
AVG. Ratio: C5/C7 ([2]; average over SCAD cell lines): AVG. 1.3
AVG. Ratio: C5/C15 ([2]; average over SCAD cell lines): AVG. 1.4
Ratio: C5/C7 (propionylcarnitine) [3, 10]: 1.6 (2×) and 2.1 and 1.5 and 1.7 and 2.0
Ratio: C5/C15 (propionylcarnitine) [3, 10]: 4.0 and 5.2 and 3.1 and 3.5 and 5.3 and 5.1
Propionylcarnitine from oxidation of fatty acid ([3]; VLCAD cardiac fibroblasts, one line per patient, 72 hours incubation): 47.0 nmol/mg Protein/72 hours and 27.2 nmol/mg Protein/72 hours and 67.8 nmol/mg Protein/72 hours and 28.2 nmol/mg Protein/72 hours and 34.7 nmol/mg Protein/72 hours and 50.6 nmol/mg Protein/72 hours
AVG. Ratio: C5/C7 [3, 11]: AVG. 1.8
AVG. Ratio: C5/C15 [3, 11]: AVG. 4.4
Propionyl-CoA produced in culture (in words) ([4]; MCAD 1 and MCAD 2 cell lines, compared with normal): normal or greater than normal
Propionylcarnitine from odd carbon precursor ([4]; MCAD-1 fibroblast cell line): 25.8 nmol/mg Protein/72 hours
Propionylcarnitine from odd carbon precursor ([4]; MCAD-2 fibroblast cell line): 58.5 nmol/mg Protein/72 hours
Ratio: C5/C7 (propionylcarnitine) [5, 12]: 1.2 and 1.5 (2×) and 2.3 and 1.6
Ratio: C5/C15 (propionylcarnitine) [5, 12]: 1.9 and 2.3 and 2.2 and 3.5 and 2.6
Propionylcarnitine from oxidation of fatty acid ([5]; LCHAD fibroblasts, one line per patient, 72 hours incubation): 65.4 nmol/mg Protein/72 hours and 34.5 nmol/mg Protein/72 hours and 35.0 nmol/mg Protein/72 hours and 24.4 nmol/mg Protein/72 hours and 36.8 nmol/mg Protein/72 hours
AVG. Ratio: C5/C7 ([5]; average over LCHAD cell lines): AVG. 1.6
AVG. Ratio: C5/C15 ([5]; average over LCHAD cell lines): AVG. 2.5
Ratio: C5/C7 (propionylcarnitine) [6, 13]: 2.0 and 1.4 (2×) and 2.1
Ratio: C5/C15 (propionylcarnitine) [6, 13]: 2.7 and 1.5 and 1.4 and 1.7
Propionylcarnitine from oxidation of fatty acid ([6]; VLCAD non-cardiac fibroblasts, one line per patient, 72 hours incubation): 44.4 nmol/mg Protein/72 hours and 28.3 nmol/mg Protein/72 hours and 51.8 nmol/mg Protein/72 hours and 19.7 nmol/mg Protein/72 hours
AVG. Ratio: C5/C7 [6, 14]: AVG. 1.7
AVG. Ratio: C5/C15 [6, 14]: AVG. 1.8
Amount of C3 produced following the meal, C5 compared with C7 (SCAD patient): significantly greater
Limitation in oxidation of the meal triglyceride (SCAD patient): no limitation in oxidation
Change in C4 (butyrylcarnitine) during the meal (SCAD patient; C4 already at very low levels): no significant decrease in C4
Clinical or biochemical toxicity (SCAD patient; meal test, 4 hours): no clinical or biochemical toxicity
Relative Blood Levels of Fatty Acid Chain Lengths: C3 (SCAD patient; time 0 hours): 2.61
Relative Blood Levels of Fatty Acid Chain Lengths: C4 (butyrylcarnitine) (SCAD patient; time 0 hours): 0.30
Relative Blood Levels of Fatty Acid Chain Lengths: C3 (SCAD patient; time 1 hours): 2.78
Relative Blood Levels of Fatty Acid Chain Lengths: C4 (butyrylcarnitine) (SCAD patient; time 1 hours): 0.26
Relative Blood Levels of Fatty Acid Chain Lengths: C3 (SCAD patient; time 2 hours): 3.19
Relative Blood Levels of Fatty Acid Chain Lengths: C4 (butyrylcarnitine) (SCAD patient; time 2 hours): 0.27
Relative Blood Levels of Fatty Acid Chain Lengths: C3 (SCAD patient; time 3 hours): 3.73
Relative Blood Levels of Fatty Acid Chain Lengths: C4 (butyrylcarnitine) (SCAD patient; time 3 hours): 0.30
Relative Blood Levels of Fatty Acid Chain Lengths: C3 (SCAD patient; time 4 hours): 4.99
Relative Blood Levels of Fatty Acid Chain Lengths: C4 (butyrylcarnitine) (SCAD patient; time 4 hours): 0.27
Propionylcarnitine from odd carbon precursor [7]: 25.8 nmol/mg Protein/72 hours
Ratio: C5/C7 (propionylcarnitine) [8, 15]: 1.6 and 1.3
Ratio: C5/C15 (propionylcarnitine) [8, 15]: 1.2 and 1.4
Propionylcarnitine from oxidation of fatty acid ([8]; MTP fibroblasts, one line per patient, 72 hours incubation): 38.3 nmol/mg Protein/72 hours and 63.6 nmol/mg Protein/72 hours
AVG. Ratio: C5/C7 ([8]; average over MTP cell lines): AVG. 1.5
AVG. Ratio: C5/C15 ([8]; average over MTP cell lines): AVG. 1.3
Myristenoylcarnitine Level (VLCAD patient; time 0 hours, cis-5-C14:1, marker of lipolysis): 3.07
Propionylcarnitine Level (VLCAD patient; time 0 hours, enteral meal via gastrostomy): 1.38
Myristenoylcarnitine Level (VLCAD patient; time 1 hours): 2.89
Propionylcarnitine Level (VLCAD patient; time 1 hours): 3.15
Myristenoylcarnitine Level (VLCAD patient; time 2 hours): 2.04
Propionylcarnitine Level (VLCAD patient; time 2 hours): 3.51
Myristenoylcarnitine Level (VLCAD patient; time 3 hours): 3.39
Propionylcarnitine Level (VLCAD patient; time 3 hours): 5.63
Clinical or biochemical toxicity (VLCAD patient; meal test, 3 hour interval): no clinical or biochemical toxicity
